According to PubChem BioAssay (NCI):
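Values below derive from 48-hour exposures of cells grown in 96-well plates, with endpoints linearly interpolated between the two concentrations bracketing the appropriate inhibition level. Here, GI50 denotes the concentration required for 50% inhibition of growth. At the TGI there is no net growth.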

Tests used:
Assay in all cases: NCI tumour cell line growth inhibition, 48 h
786-0 renal = tested on: 786-0 renal
A498 renal = tested on: A498 renal
A549 NSCLC = tested on: A549 NSCLC
ACHN renal = tested on: ACHN renal
BT-549 breast = tested on: BT-549 breast
CAKI-1 renal = tested on: CAKI-1 renal
CCRF-CEM leukemia = tested on: CCRF-CEM leukemia
COLO 205 colon = tested on: COLO 205 colon
DU-145 prostate = tested on: DU-145 prostate
EKVX NSCLC = tested on: EKVX NSCLC
HCC-2998 colon = tested on: HCC-2998 colon
HCT-116 colon = tested on: HCT-116 colon
HCT-15 colon = tested on: HCT-15 colon
HL-60(TB) leukemia = tested on: HL-60(TB) leukemia
HOP-62 NSCLC = tested on: HOP-62 NSCLC
HOP-92 NSCLC = tested on: HOP-92 NSCLC
HS 578T breast = tested on: HS 578T breast
HT29 colon = tested on: HT29 colon
IGROV1 ovarian = tested on: IGROV1 ovarian
K-562 leukemia = tested on: K-562 leukemia
KM12 colon = tested on: KM12 colon
LOX IMVI melanoma = tested on: LOX IMVI melanoma
M14 melanoma = tested on: M14 melanoma
MALME-3M melanoma = tested on: MALME-3M melanoma
MCF7 breast = tested on: MCF7 breast
MDA-MB-231 breast = tested on: MDA-MB-231 breast
MDA-MB-435 = tested on: MDA-MB-435
MDA-MB-468 breast = tested on: MDA-MB-468 breast
MOLT-4 leukemia = tested on: MOLT-4 leukemia
NCI-H226 lung = tested on: NCI-H226 lung
NCI-H23 lung = tested on: NCI-H23 lung
NCI-H460 lung = tested on: NCI-H460 lung
NCI-H522 lung = tested on: NCI-H522 lung
NCI/ADR-RES ovarian = tested on: NCI/ADR-RES ovarian
OVCAR-3 ovarian = tested on: OVCAR-3 ovarian
OVCAR-4 ovarian = tested on: OVCAR-4 ovarian
OVCAR-5 ovarian = tested on: OVCAR-5 ovarian
OVCAR-8 ovarian = tested on: OVCAR-8 ovarian
PC-3 prostate = tested on: PC-3 prostate
RPMI-8226 leukemia = tested on: RPMI-8226 leukemia
RXF 393 renal = tested on: RXF 393 renal
SF-268 CNS = tested on: SF-268 CNS
SF-295 CNS = tested on: SF-295 CNS
SF-539 CNS = tested on: SF-539 CNS
SK-MEL-2 melanoma = tested on: SK-MEL-2 melanoma
SK-MEL-28 melanoma = tested on: SK-MEL-28 melanoma
SK-MEL-5 melanoma = tested on: SK-MEL-5 melanoma
SK-OV-3 ovarian = tested on: SK-OV-3 ovarian
SN12C renal = tested on: SN12C renal
SNB-19 CNS = tested on: SNB-19 CNS
SNB-75 CNS = tested on: SNB-75 CNS
SR leukemia = tested on: SR leukemia
SW-620 colon = tested on: SW-620 colon
T-47D breast = tested on: T-47D breast
TK-10 renal = tested on: TK-10 renal
U251 CNS = tested on: U251 CNS
UACC-257 melanoma = tested on: UACC-257 melanoma
UACC-62 melanoma = tested on: UACC-62 melanoma
UO-31 renal = tested on: UO-31 renal

**Q.** What does the source list for `CN1CCN(c2ccc3c(c2)nc(NNC(=O)c2ncccn2)c2cccn23)CC1`?
**A.** GI50 (786-0 renal): 795 nM; TGI (786-0 renal): 2110 nM; GI50 (A498 renal): 1720 nM; TGI (A498 renal): 3320 nM; GI50 (A549 NSCLC): 1700 nM; TGI (A549 NSCLC): 11300 nM; GI50 (ACHN renal): 712 nM; TGI (ACHN renal): 6010 nM; GI50 (BT-549 breast): 856 nM; TGI (BT-549 breast): 2820 nM; GI50 (CAKI-1 renal): 782 nM; TGI (CAKI-1 renal): 7620 nM; GI50 (CCRF-CEM leukemia): 224 nM; TGI (CCRF-CEM leukemia): 2100 nM; GI50 (COLO 205 colon): 476 nM; TGI (COLO 205 colon): 1720 nM; GI50 (DU-145 prostate): 1250 nM; TGI (DU-145 prostate): 11000 nM; GI50 (EKVX NSCLC): 529 nM; TGI (EKVX NSCLC): 3960 nM; GI50 (HCC-2998 colon): 706 nM; TGI (HCC-2998 colon): 3000 nM; GI50 (HCT-116 colon): 347 nM; TGI (HCT-116 colon): 2610 nM; GI50 (HCT-15 colon): 762 nM; TGI (HCT-15 colon): 5250 nM; GI50 (HL-60(TB) leukemia): 556 nM; TGI (HL-60(TB) leukemia): 4820 nM; GI50 (HOP-62 NSCLC): 453 nM; TGI (HOP-62 NSCLC): 3200 nM; GI50 (HOP-92 NSCLC): 482 nM; TGI (HOP-92 NSCLC): 2460 nM; GI50 (HS 578T breast): 3010 nM; TGI (HS 578T breast): 34500 nM; GI50 (HT29 colon): 628 nM; TGI (HT29 colon): 2340 nM; GI50 (IGROV1 ovarian): 1670 nM; TGI (IGROV1 ovarian): 11000 nM; GI50 (K-562 leukemia): 1880 nM; TGI (K-562 leukemia): > 32400 nM; GI50 (KM12 colon): 630 nM; TGI (KM12 colon): 12800 nM; GI50 (LOX IMVI melanoma): 383 nM; TGI (LOX IMVI melanoma): 2640 nM; GI50 (M14 melanoma): 611 nM; TGI (M14 melanoma): 3000 nM; GI50 (MALME-3M melanoma): 1380 nM; TGI (MALME-3M melanoma): 4290 nM; GI50 (MCF7 breast): 1980 nM; TGI (MCF7 breast): 9750 nM; GI50 (MDA-MB-231 breast): 902 nM; TGI (MDA-MB-231 breast): 3990 nM; GI50 (MDA-MB-435): 1780 nM; TGI (MDA-MB-435): 13500 nM; GI50 (MDA-MB-468 breast): 408 nM; TGI (MDA-MB-468 breast): 1820 nM; GI50 (MOLT-4 leukemia): 435 nM; TGI (MOLT-4 leukemia): 15600 nM; GI50 (NCI-H226 lung): 929 nM; TGI (NCI-H226 lung): 2630 nM; GI50 (NCI-H23 lung): 1890 nM; TGI (NCI-H23 lung): 10100 nM; GI50 (NCI-H460 lung): 1220 nM; TGI (NCI-H460 lung): 10500 nM; GI50 (NCI-H522 lung): 927 nM; TGI (NCI-H522 lung): 5310 nM; GI50 (NCI/ADR-RES ovarian): 2570 nM; TGI (NCI/ADR-RES ovarian): 9440 nM; GI50 (OVCAR-3 ovarian): 704 nM; TGI (OVCAR-3 ovarian): 4420 nM; GI50 (OVCAR-4 ovarian): 725 nM; TGI (OVCAR-4 ovarian): 4100 nM; GI50 (OVCAR-5 ovarian): 1370 nM; TGI (OVCAR-5 ovarian): 5800 nM; GI50 (OVCAR-8 ovarian): 655 nM; TGI (OVCAR-8 ovarian): 2380 nM; GI50 (PC-3 prostate): 344 nM; TGI (PC-3 prostate): 4120 nM; GI50 (RPMI-8226 leukemia): 2980 nM; TGI (RPMI-8226 leukemia): 13300 nM; GI50 (RXF 393 renal): 1430 nM; TGI (RXF 393 renal): 3990 nM; GI50 (SF-268 CNS): 594 nM; TGI (SF-268 CNS): 11900 nM; GI50 (SF-295 CNS): 622 nM; TGI (SF-295 CNS): 2960 nM; GI50 (SF-539 CNS): 1090 nM; TGI (SF-539 CNS): 4200 nM; GI50 (SK-MEL-2 melanoma): 1280 nM; TGI (SK-MEL-2 melanoma): 4210 nM; GI50 (SK-MEL-28 melanoma): 849 nM; TGI (SK-MEL-28 melanoma): 9030 nM; GI50 (SK-MEL-5 melanoma): 1160 nM; TGI (SK-MEL-5 melanoma): 3170 nM; GI50 (SK-OV-3 ovarian): 459 nM; TGI (SK-OV-3 ovarian): 1830 nM; GI50 (SN12C renal): 1390 nM; TGI (SN12C renal): 10800 nM; GI50 (SNB-19 CNS): 966 nM; TGI (SNB-19 CNS): 12500 nM; GI50 (SNB-75 CNS): 610 nM; TGI (SNB-75 CNS): 11400 nM; GI50 (SR leukemia): 433 nM; TGI (SR leukemia): 11600 nM; GI50 (SW-620 colon): 855 nM; TGI (SW-620 colon): 3830 nM; GI50 (T-47D breast): 1660 nM; TGI (T-47D breast): 5780 nM; GI50 (TK-10 renal): 489 nM; TGI (TK-10 renal): 3050 nM; GI50 (U251 CNS): 514 nM; TGI (U251 CNS): 3940 nM; GI50 (UACC-257 melanoma): 2280 nM; TGI (UACC-257 melanoma): 6250 nM; GI50 (UACC-62 melanoma): 828 nM; TGI (UACC-62 melanoma): 3450 nM; GI50 (UO-31 renal): 677 nM; TGI (UO-31 renal): 4070 nM
